In PubChem BioAssay (NCI) one finds TGI and GI50 data, which are given here for 17 compounds.

What all share (assay): NCI anticancer screen, dose series, 48 h
The subject of assay [1] is HOP-92 NSCLC.
Assay [2] relates to SW-620 colon.
Assay [3] deals with HL-60(TB) leukemia.
The test system of assay [4] is OVCAR-4 ovarian.
The test system of assay [5] is OVCAR-8 ovarian.
For assay [6], the system named is OVCAR-5 ovarian.
Assay [7] has as its system HCC-2998 colon.
The subject of assay [8] is U251 CNS.
The subject of assay [9] is KM20L2 colon.
The test system of assay [10] is LXFL 529 NSCLC.

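Following 48 hours of exposure in 96-well plates, responses at five concentrations were used to interpolate endpoints linearly. GI50 is the concentration that inhibits growth by half. TGI marks complete inhibition of growth.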 Where only a bound is given, the exact number is not on record here.

`COC(=O)[C@@]12C3=NO[C@]1(C(=O)OC)C(O[Si](C)(C)C(C)(C)C)[C@@H](OC(C)=O)[C@@H](OC(C)=O)[C@@H]2[C@@H](OCc1ccccc1)CC3` (stereo partly specified): the TGI in [1] is more than 26.1 µM; in assay [2], more than 100 µM; in assay [3], more than 100 µM; in assay [4], more than 100 µM; in [5], more than 100 µM; in [6] it was more than 100 µM. The TGI in assay [7], in assay [8], in assay [9] and in assay [10] was more than 100 µM throughout.

`COc1ccc2c(c1)[n+]([O-])c(-c1ccccc1Cl)c(N)[n+]2[O-]`: the TGI in assay [1], in assay [2], in [3], in [4], in assay [5] and in assay [6] was more than 100 µM each time. Besides, the TGI in assay [8], in assay [9] and in [10] was more than 100 µM each time.

`CCCCOC(=O)NC(=O)c1cn(CCCOC(=O)CCCCCCCCC(=O)OCCCn2cc(C(=O)NC(=O)OCCCC)c(=O)n(C)c2=O)c(=O)n(C)c1=O`: the TGI in [1], in assay [2], in assay [3], in [4], in [5] and in [6] was more than 100 µM each time. For the same compound, the TGI in [7], in [8], in [9] and in [10] was more than 100 µM in each case.

Turning to `CC1(C)C(=O)/C=C\C(=O)C(C)(C)C(=O)/C=C\C(=O)C(C)(C)C2=CC=C(O2)C(C)(C)C(=O)/C=C\C1=O`, the TGI in assay [1] is 3.9 µM; in assay [2] it was 3.59 µM; in assay [3], 2.24 µM; in assay [4] it was 14.8 µM; in [5], 11.6 µM; in assay [6], 37.1 µM. Moreover, the TGI in assay [7] was 24.1 µM; in [8], 30.4 µM; in assay [9] it was 28.3 µM; in assay [10], 6.14 µM.

Take `CCN(CC)c1ccc(C2N3CCCCC3[C@@H]3c4[nH]c5ccccc5c4CCN23)cc1` (stereo partly specified): the TGI in assay [1] was more than 100 µM; in assay [2], more than 100 µM; in assay [3], 30.8 µM; in assay [4], more than 100 µM; in assay [5], more than 100 µM; in assay [6], more than 100 µM. In addition, the TGI in [8] is more than 100 µM; in assay [9] it was more than 100 µM; in [10] it was 55.6 µM.

In the case of `CC(=O)CC(=O)Nc1ccccc1C(F)(F)F`, the TGI in assay [1], in [2], in assay [3], in [4], in assay [5] and in assay [6] was more than 100 µM throughout. Further, the TGI in [7], in assay [8], in assay [9] and in assay [10] was more than 100 µM in each case.

As to `CSc1nnc(C(C#N)C#N)nn1`, the TGI in [1], in assay [2], in [3], in [4], in assay [5] and in [6] was more than 100 µM each time. Further, the TGI in assay [7], in assay [8], in [9] and in assay [10] was more than 100 µM in each case.

`CCCCCCCCCCCCCS(=O)(=O)NCC(N)=O`: the TGI in assay [1], in assay [2], in assay [3], in [4], in assay [5] and in [6] was more than 100 µM each time. Besides, the TGI in assay [7], in assay [8], in [9] and in assay [10] was more than 100 µM each time.

Take `CCN(CC)c1c(C)nnn1C1OC(COC(C)=O)C(OC(C)=O)C(OC(C)=O)C1OC(C)=O` (stereo unspecified): the TGI in [1] is more than 100 µM; in assay [2], 31.3 µM; in assay [3] it was more than 100 µM; in assay [4], more than 100 µM; in assay [5], more than 100 µM; in assay [6] it was more than 100 µM. Further, the TGI in [7], in [8], in assay [9] and in assay [10] was more than 100 µM in each case.

`COc1cc(O)c(C(=O)/C=C/c2ccc(OC)c(OCc3ccccc3)c2)c(OC)c1`: the TGI in assay [1], in assay [2], in [3], in assay [4], in assay [5] and in assay [6] was more than 100 µM each time. The TGI in assay [7], in [8], in assay [9] and in assay [10] was more than 100 µM each time.

Turning to `CC(=O)Nc1ccc(/C=c2\sc3nnc(-c4cccnc4)n3c2=O)cc1`, the TGI was determined as 44.2 µM in assay [1]; 34.2 µM in [2]; 42.9 µM in [3]; 30.7 µM in assay [4]; 32.1 µM in [5]; 67.1 µM in [6]. Also, the TGI in [7] worked out at 35.8 µM; in assay [8], 33.5 µM; in assay [9], 38.6 µM; in [10], 30.8 µM.

With `NC(=O)c1ncn(C2OC(CO)C(O)C2O)c1O` (stereo unspecified), the TGI in assay [1], in assay [2], in assay [3], in assay [4], in assay [5] and in assay [6] was more than 100 µM throughout. The TGI in assay [7], in [8], in assay [9] and in assay [10] was more than 100 µM throughout.

Consider `O=C1[C@@H]2C(c3ccccc3[N+](=O)[O-])=NO[C@@H]2C(=O)N1c1ccc(Cc2ccc(N3C(=O)[C@H]4C(c5ccccc5[N+](=O)[O-])=NO[C@H]4C3=O)cc2)cc1`, for which the TGI in assay [1], in assay [2], in assay [4], in assay [5], in assay [6] and in assay [7] was more than 100 µM throughout. Also, the TGI in assay [8], in assay [9] and in [10] was more than 100 µM throughout.

Regarding `COc1ccc(C(=O)C(C(=O)C(=O)NCCCNC(=O)C(=O)C(C(=O)c2ccc(OC)cc2)c2ccc(OC)cc2)c2ccc(OC)cc2)cc1` (stereo unspecified), the TGI in assay [1], in [2], in assay [3], in assay [4], in assay [5] and in assay [6] was more than 100 µM throughout. Moreover, the TGI in assay [7], in [8], in assay [9] and in assay [10] was more than 100 µM in each case.

On to `Cc1ccc(Nc2nc(-c3ccc(-c4ccc([N+](=O)[O-])cc4)o3)cs2)cc1`, for which the TGI in [1], in [2], in assay [3], in assay [4], in assay [5] and in [6] was more than 100 µM in each case. Besides, the TGI is 97 µM in assay [7], more than 100 µM in [8], more than 100 µM in assay [9] and more than 100 µM in assay [10].

Regarding `CC(=O)[CH-]C(=O)c1ccccc1.CC(=O)[CH-]C(=O)c1ccccc1.CC(=O)[CH-]C(=O)c1ccccc1.[Ga+3]`, the GI50 in assay [1] was 29.8 µM; in [2] it was 23 µM; in assay [3], 11.8 µM; in assay [4], 17.1 µM; in [5] it was 14.8 µM; in assay [6] it was 26.5 µM. Further, the GI50 in [7] is 13.9 µM; in assay [8], 12.7 µM; in assay [9] it was 18.5 µM; in assay [10], 12 µM. Moreover, the TGI was found to be 51.9 µM in assay [1]; 55.8 µM in [2]; 36.1 µM in assay [3]; 34.5 µM in assay [4]; 29.2 µM in assay [5]; 66.8 µM in assay [6]. Also, the TGI in assay [7] was 29.9 µM; in assay [8], 25.8 µM; in assay [9], 42.6 µM; in [10], 24.8 µM.

In the case of `CN1CCN(c2nc(N)c(Br)c(Cl)n2)CC1`, the TGI in assay [1], in assay [2], in assay [3], in [4], in assay [5] and in [6] was more than 100 µM in each case. Moreover, the TGI in assay [7], in assay [9] and in assay [10] was more than 100 µM in each case.
